In patent publication US20230183293A1, “METHODS OF TREATING OR PREVENTING CORONAVIRUS INFECTION” (priority 2021, published 2023):
Read-outs that look alike come from different tables or passages of the source. Marks after values point to notes of the source that are not given here.

How the values were obtained:
[1] = tested on: SARS-CoV-2 virions; settings: 2 h at 37° C., below the limit of detection
[2] = tested on: SARS-CoV-2; assay: CPE reduction assay in Vero E6 cells with pharmaceutical formulations (Example 8); assay type: cell-based; settings: for inhibitory / antiviral effect in CPE reduction assay: FIGS. 7D-7E; for EC50: Severe acute respiratory syndrome coronavirus 2, Vero C1008, 72 h, Vero E6, 3 days, read-out: EC50, inhibition of virus-induced cell death
[3] = tested on: SARS-CoV-2; assay: CPE reduction assay in Vero E6 cells with pharmaceutical formulations dissolved in DMSO (Example 6); assay type: cell-based; settings: Severe acute respiratory syndrome coronavirus 2, Vero C1008, 72 h, read-out: EC50, inhibition of virus-induced cell death
[4] = tested on: SARS-CoV-2; assay: microbe, parasite or virus in culture; assay type: cell-based; settings: for EC50: Severe acute respiratory syndrome coronavirus 2, Vero C1008, FIG. 1C, Vero E6 CPE reduction, read-out: EC50 inhibition of SARS-CoV-2
[5] = Phase 2b study in de novo kidney transplant recipients (Example 3); assay type: in vivo, human
Description: De novo kidney transplant recipients were enrolled into a 6 month, Phase 2b, multi-center, randomized, open-label study. […] In addition, all subjects received induction immunosuppression with intravenous daclizumab or basiliximab (dosed per product labeling) and received concomitant treatment during the study with MMF and corticosteroids. […] Adverse reactions were recorded and renal graft rejection was assessed based on Banff classification. At 3-month and 6-month time points, adverse reactions were analyzed. Graft survival and patient survival were also recorded at the 6-month time point.

[6] = tested on: SARS-CoV-2; assay type: cell-based
[7] = tested on: SARS-CoV-2; assay: microbe, parasite or virus in culture; assay type: cell-based
[8] = Binding to plastic labware (coated or uncoated 96-well plates), remaining concentration by LC-MS/MS (Example 12); assay type: physicochemical
Description: Plastic labware was coated with three different coating agents: 100 mg/ml bovine serum albumin in PBS (BSA; Sigma), 1% polyethylene glycol 3350 in MilliQ water (PEG-3350; Sigma) and 0.2% polysorbate 40 in MilliQ water (Tween40; Fluka). In addition, the plastic materials with VCS by treating them with a 500 mM VCS solution in DMSO (Sigma). Labware, including all tubes, tips and culture plastics, was filled with blocking solution and incubated for 2 h at room temperature with rocking to homogenously coat the surfaces. After rinsing twice with MilliQ water, the items were left to dry at room temperature until further use in experiments. Solutions of 0.2 and 2 μM of VCS were prepared in EMEM-2% FCS and 100 μl of each VCS solution was incubated in coated 96-well plates. After a 2 h incubation at 37° C. the remaining VCS concentration was measured by validated LC-MS/MS.

[9] = tested on: Vero E6 cells; settings: for concentration after which compound-related cytotoxicity was observed: Vero E6, 3 days; for concentrations without toxicity to uninfected cells: FIG. 1B
[10] = tested on: Calu-3 cells; settings: plastic, Calu-3, FIG. 6D
[11] = tested on: SARS-CoV-2; settings: HuH7.5, Calu-3 and Vero cells; Dittmar et al.; cited from earlier work
[12] = tested on: SARS-CoV-2; assay: SARS-CoV-2 viral load reduction assay in Vero E6 cells, plaque assay and NSP4 staining (Example 2); assay type: cell-based
[13] = VCS concentration after incubation in glass without cells, LC-MS/MS; assay type: physicochemical; settings: for Conc: 3.2 μM supplied solution, without cells, glass
[14] = assay type: physicochemical
[15] = tested on: Vero E6 cells; assay: Cytotoxicity in mock-infected Vero E6 cells, pure powder stocks (Example 11); assay type: cell-based, African green monkey; settings: solution from pure powder
Description: CPE reductions assays in Vero E6 cells were performed, generally as described above, except that pre-incubation of cells with the tested compounds lasted 30 minutes. Plates were incubated for three days at 37° C. and cell viability was determined using a colorimetric assay, measuring the absorption at 495 nm. The EC50 and CC50 of each compound was determined and analysis of the resultant data using non-linear regression. For each compound, at least two independent experiments (each in quadruplicate) were completed.
CPE reduction assays were performed as described above, using high purity powders of immunosuppressive drugs solubilized in DMSO. Test stock solutions were prepared from pure powders of each compound. In the case of Neoral (CsA microemulsion), CsA powder, the most commonly used CsA derivative in KTR treatment, was evaluated.

[16] = tested on: SARS-CoV-2; settings: prednisone + voclosporin, expected
[17] = tested on: Calu-3 cells; settings: with cells, glass
[18] = tested on: calcineurin; settings: in vitro and in vivo; Kuglstatter et al.; cited from earlier work
[19] = tested on: norovirus; settings: compared with CsA; cited from earlier work
[20] = in vitro; settings: African green monkey
[21] = Vero E6, MOI 0.015, three days, pharmaceutical formulation in DMSO, estimated concentrations
[22] = plastic labware, 0.8 μM stock solution, 2 h

## CCO [50% ethanol, ethanol]
[1]
  amount of infectious SARS-CoV-2 remaining: < 100 PFU/ml

## CO[C@H]1C[C@@H]2CC[C@@H](C)[C@@](O)(O2)C(=O)C(=O)N2CCCC[C@H]2C(=O)O[C@H]([C@H](C)C[C@@H]2CC[C@@H](OCCO)[C@H](OC)C2)CC(=O)[C@H](C)/C=C(\C)[C@@H](O)[C@@H](OC)C(=O)[C@H](C)C[C@H](C)/C=C/C=C/C=C/1C [EVL, everolimus]
[2]
  inhibitory / antiviral effect in CPE reduction assay: did not show an inhibitory effect

## COc1c(C)c2c(c(O)c1C/C=C(\C)CCC(=O)OCCN1CCOCC1)C(=O)OC2 [MMF, mycophenolate mofetil]
[2]
  inhibitory / antiviral effect in CPE reduction assay: apparent antiviral effect

## COc1c(C)c2c(c(O)c1C/C=C(\C)CCC(=O)O)C(=O)OC2 [mycophenolate, mycophenolic acid]
[3]; [21]
  EC50: 3.1 µM

## C=CC[C@@H]1/C=C(\C)C[C@H](C)C[C@H](OC)[C@H]2O[C@@](O)(C(=O)C(=O)N3CCCC[C@H]3C(=O)O[C@H](/C(C)=C/[C@@H]3CC[C@@H](O)[C@H](OC)C3)[C@H](C)[C@@H](O)CC1=O)[C@H](C)C[C@@H]2OC [tacrolimus, reference compound]
[4]
  EC50: ~25 µM
[4]; dosages up to 25 μM
  protection of infected cells from virus-induced cytopathic effects: did not protect
[5]; standard dose 0.05 mg/kg BID, months 0-3
  blood trough level: 7 to 20 ng/mL
[5]; standard dose 0.05 mg/kg BID, months 0-6 as printed
  blood trough level: 5 to 15 ng/mL
[5]; standard dose group
  Nankivell eGFR: 69 mL/min
[5]; standard dose, 6 month
  Graft survival: 97.7%
  NODAT (new onset of diabetes after transplant) incidence: 16.4%
  Patient survival: 97.7%
[5]; standard dose, 6 month, listed as Tacrolimus
  NODAT (new onset of diabetes after transplant) incidence: 16.4%
[5]; standard dose, N = 86, 6 month post-transplantation
  Central BPAR (biopsy proven acute rejection), patients (incidence): 5 (5.8%)
[3]; [21]
  EC50: 12 µM
[6]; 3.2 μM, glass labware, Calu-3, 24 h p.i., FIG. 6A
  reduction in SARS-CoV-2 infectious progeny titers: ~0.5 log
[2]
  EC50: 10 ± 1 µM
[7]; Severe acute respiratory syndrome coronavirus 2, Vero C1008, solutions prepared from pure powder, read-out: EC50, inhibition of SARS-CoV-2 in Vero E6 cells
  EC50: ~15 µM
[8]; plastic labware, 0.8 μM stock solution, 0 h
  Conc: 850 nM
[8]; [22]
  % rem: 76%
  Conc: 650 nM
[8]; plastic labware, 2 h
  loss by binding to plastic: 24%
[9]
  concentration after which compound-related cytotoxicity was observed: above 25 μM
[9]; listed as Tacrolimus
  concentration after which compound-related cytotoxicity was observed: > 25000 nM
[10]
  cytotoxicity: did not display much cytotoxicity
[11]
  activity on SARS-CoV-2 replication in a previous report: no activity

## C=C/C=C/C[C@@H](C)[C@@H](O)[C@H]1C(=O)N[C@@H](CC)C(=O)N(C)CC(=O)N(C)[C@@H](CC(C)C)C(=O)N[C@@H](C(C)C)C(=O)N(C)[C@@H](CC(C)C)C(=O)N[C@@H](C)C(=O)N[C@H](C)C(=O)N(C)[C@@H](CC(C)C)C(=O)N(C)[C@@H](CC(C)C)C(=O)N(C)[C@@H](C(C)C)C(=O)N1C [voclosporin]
[4]
  EC50: ~0.4 µM
[4]; Vero E6, 3 days
  concentration preserving viability of infected cells at level of mock-infected/uninfected cells: 0.8 µM
[12]; Vero E6, FIG. 2A, unit not given
  concentration above which viral titer was reduced to the limit of detection: above 1.00
[12]; Vero E6, FIG. 2C
  amount of SARS-CoV-2 infected cells, fluorescent staining of viral NSP4: reduced the amount of SARS-CoV-2 infected cells in a dose-dependent manner
[5]; high dose, 6 month
  NODAT (new onset of diabetes after transplant) incidence: 17.7%
[5]; high dose, 6 month, listed as Voclosporin
  NODAT (new onset of diabetes after transplant) incidence: 17.7%
[5]; high dose, N = 87, 6 month post-transplantation
  Central BPAR (biopsy proven acute rejection), patients (incidence): 2 (2.3%)
[5]; high-dose 0.8 mg/kg BID, months 0-3
  blood trough level: 60 to 85 ng/mL
[5]; high-dose 0.8 mg/kg BID, months 3-6
  blood trough level: 31 to 40 ng/mL
[5]; low dose, 6 month
  NODAT (new onset of diabetes after transplant) incidence: 1.6%
[5]; low dose, 6 month, listed as Voclosporin
  NODAT (new onset of diabetes after transplant) incidence: 1.6%
[5]; low dose, N = 84, 6 month post-transplantation
  Central BPAR (biopsy proven acute rejection), patients (incidence): 9 (10.7%)
[5]; low-dose 0.4 mg/kg BID, months 0-3
  blood trough level: 20 to 30 ng/mL
[5]; low-dose 0.4 mg/kg BID, months 3-6
  blood trough level: 11 to 20 ng/mL
[5]; mid dose, 6 month
  NODAT (new onset of diabetes after transplant) incidence: 5.7%
[5]; mid dose, 6 month, listed as Voclosporin
  NODAT (new onset of diabetes after transplant) incidence: 5.7%
[5]; mid dose, N = 77, 6 month post-transplantation
  Central BPAR (biopsy proven acute rejection), patients (incidence): 7 (9.1%)
[5]; mid-dose 0.6 mg/kg BID, months 0-3
  blood trough level: 35 to 50 ng/mL
[3]
  EC50: 0.27 µM
[6]
  reduction in SARS-CoV-2 infectious progeny titers: more than 1.5 log
[13]; 0 h
  Conc: 2910 nM
[13]; 24 h
  Conc: 2790 nM
[13]; 24 h at 37° C. in glass without cells
  loss of compound from solution: No significant loss
[14]; after 24 h treatment with 25 μM VCS, standard plastic labware
  detected concentration in the medium of infected cells: 0.68 µM
[14]; considering a […]% reduction due to cellular binding or uptake
  VCS lost due to plastic binding: 90%
[14]; plastic labware
  bioavailable amount of what was added initially when using plastic: ~10%
[2]
  times lower EC50 compared to the other compounds tested: 18-45 times
  EC50: 0.22 ± 0.01 µM
[7]
  protection of SARS-CoV-2 infected cells compared with the pharmaceutical formulation: did not confer the same level of protection
[15]
  cytotoxicity in mock-infected cells compared with the pharmaceutical formulation: less cytotoxicity
[8]; 100 mg/ml BSA solution coating, 2 μM VCS, 0 h
  Conc: 550 ± 210 nM
[8]; 100 mg/ml BSA solution coating, 2 μM VCS, 2 h
  Conc: 100 ± 40 nM
[8]; 0.2% Tween-40 solution coating, 2 μM VCS, 0 h
  Conc: 560 ± 350 nM
[8]; 0.2% Tween-40 solution coating, 2 μM VCS, 2 h
  Conc: 90 ± 40 nM
[8]; 1% PEG-3350 solution coating, 2 μM VCS, 0 h
  Conc: 510 ± 160 nM
[8]; 1% PEG-3350 solution coating, 2 μM VCS, 2 h
  Conc: 90 ± 20 nM
[8]; Uncoated plastic, 2 μM VCS, 0 h
  Conc: 560 ± 250 nM
[8]; Uncoated plastic, 2 μM VCS, 2 h
  Conc: 130 ± 70 nM
[8]; t=0
  original stock concentration recovered: ~27%
[9]; batch 4
  concentrations without toxicity to uninfected cells: up to 10 μM
[9]; unit not given
  concentrations without toxicity to uninfected cells: under 2
[16]; 6 capsules of 7.9 mg BID
  SARS-CoV-2 viral load and CPEs compared to the tacrolimus group: more efficacious reduction in viral load, and less severe CPEs
[16]
  graft rejections, diabetes and adverse effects compared to the tacrolimus group: comparable or lower incidences of graft rejections, diabetes and adverse effects
[10]
  cytotoxicity: did not
[17]; 0.2 μM supplied solution, 0 h
  Conc: 0.33 µM
[17]; 0.2 μM supplied solution, 24 h, below detection limit
  Conc: <0.07* μM
[17]; 0.4 μM supplied solution, 0 h
  Conc: 0.45 µM
[17]; 0.4 μM supplied solution, 24 h
  Conc: 0.10 µM
[17]; 0.8 μM supplied solution, 0 h
  Conc: 0.99 µM
[17]; 0.8 μM supplied solution, 24 h
  Conc: 0.15 µM
[17]; 1.6 μM supplied solution, 0 h
  Conc: 1.77 µM
[17]; 1.6 μM supplied solution, 24 h
  Conc: 0.35 µM
[17]; 3.2 μM supplied solution, 0 h
  Conc: 2.91 µM
[17]; 3.2 μM supplied solution, 24 h
  Conc: 0.82 µM
[18]
  increase of binding affinity to calcineurin compared to CsA: up to five-fold
[19]
  inhibition of norovirus replication: inhibit norovirus replication in a CypA-dependent manner and more effectively than CsA
[20]
  CC50: ~4 µM
